Source: PubChem BioAssay AID248 (DTP/NCI, 2004)
Inconclusive results and toxic doses are left out.

Test system: L1210 leukemia ip in BDF1 mice, survival T/C
Test: NCI In Vivo Anticancer Drug Screen. Data for tumor model L1210 Leukemia (intraperitoneal) in B6D2F1 (BDF1) mice
Details: endpoint: mean survival time, higher = longer survival
Method in brief: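 Transplanted-tumor mice were given test agent; controls received vehicle only. Survival readings from the two groups were divided (treated over control).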

[1] = dose: 100.0 mg/kg/injection, schedule: Q01DX009 (ip), vehicle: Klucel (hydroxypropylcellulose) (HPC)
[2] = dose: 100.0 mg/kg/injection, schedule: Q04DX003 (ip), vehicle: Klucel (hydroxypropylcellulose) (HPC)
[3] = dose: 200.0 mg/kg/injection, schedule: Q01DX009 (ip), vehicle: Klucel (hydroxypropylcellulose) (HPC)
[4] = dose: 200.0 mg/kg/injection, schedule: Q04DX003 (ip), vehicle: Klucel (hydroxypropylcellulose) (HPC)
[5] = dose: 400.0 mg/kg/injection, schedule: Q01DX009 (ip), vehicle: Klucel (hydroxypropylcellulose) (HPC)
[6] = dose: 400.0 mg/kg/injection, schedule: Q04DX003 (ip), vehicle: Klucel (hydroxypropylcellulose) (HPC)
[7] = dose: 50.0 mg/kg/injection, schedule: Q04DX003 (ip), vehicle: Klucel (hydroxypropylcellulose) (HPC)
[8] = dose: 50.0 mg/kg/injection, schedule: Q01DX001 (ip), vehicle: carboxymethylcellulose (CMC)
[9] = dose: 100.0 mg/kg/injection, schedule: Q01DX001 (ip), vehicle: carboxymethylcellulose (CMC)
[10] = dose: 200.0 mg/kg/injection, schedule: Q01DX001 (ip), vehicle: carboxymethylcellulose (CMC)
[11] = dose: 400.0 mg/kg/injection, schedule: Q01DX001 (ip), vehicle: carboxymethylcellulose (CMC)
[12] = dose: 100.0 mg/kg/injection, schedule: Q01DX001 (ip), vehicle: saline
[13] = dose: 200.0 mg/kg/injection, schedule: Q01DX001 (ip), vehicle: saline
[14] = dose: 400.0 mg/kg/injection, schedule: Q01DX001 (ip), vehicle: saline

`CC1CN=C(c2ccc(NC(=O)Nc3ccc(C(=O)Nc4ccc(C5=NCC(C)N5)cc4)cc3)cc2)N1` (stereo unspecified) was tested, and the T/C (dose: 0.23 mg/kg/injection, schedule: Q01DX009 (ip), vehicle: saline) was 96 % of control, the T/C (dose: 0.94 mg/kg/injection, schedule: Q01DX009 (ip), vehicle: saline) was 96 % of control and the T/C (dose: 7.5 mg/kg/injection, schedule: Q01DX Z (ip), vehicle: saline) was 150 % of control. The T/C (dose: 15.0 mg/kg/injection, schedule: Q01DX Z (ip), vehicle: other) was 204 % of control, the T/C (dose: 15.0 mg/kg/injection, schedule: Q01DX Z (ip), vehicle: saline) was 277 % of control and the T/C (dose: 15.0 mg/kg/injection, schedule: Q01DX Z (oral), vehicle: saline) was 103 % of control. For the same compound, the T/C (dose: 30.0 mg/kg/injection, schedule: Q01DX Z (ip), vehicle: other) was 115 % of control, the T/C (dose: 30.0 mg/kg/injection, schedule: Q01DX Z (oral), vehicle: saline) was 103 % of control and the T/C (dose: 60.0 mg/kg/injection, schedule: Q01DX Z (oral), vehicle: saline) was 103 % of control. For the same compound, the T/C (dose: 120.0 mg/kg/injection, schedule: Q01DX Z (oral), vehicle: saline) was 102 % of control.

In the case of `N#Cc1ccccc1N=NNc1ccc(-c2nc(N)nc(N)n2)cc1`, the T/C (dose: 100.0 mg/kg/injection, schedule: Q04DX003 (ip), vehicle: saline) is reported as 94 % of control, the T/C (dose: 200.0 mg/kg/injection, schedule: Q04DX003 (ip), vehicle: saline) is reported as 89 % of control and the T/C (dose: 400.0 mg/kg/injection, schedule: Q04DX003 (ip), vehicle: saline) is reported as 89 % of control.

In the case of `O=C1CCC/C1=C/c1ccco1`, the T/C (dose: 100.0 mg/kg/injection, schedule: Q04DX002 (ip), vehicle: saline with Tween-80) is reported as 105 % of control, the T/C (dose: 200.0 mg/kg/injection, schedule: Q04DX002 (ip), vehicle: saline with Tween-80) is reported as 105 % of control and the T/C (dose: 400.0 mg/kg/injection, schedule: Q04DX002 (ip), vehicle: saline with Tween-80) is reported as 94 % of control.

`NNC(=O)c1ccccc1Nc1ccc(Br)cc1` was tested, and the T/C [1] was 94 % of control, the T/C [2] was 94 % of control and the T/C [3] was 93 % of control. The T/C [4] was 94 % of control, the T/C [5] was 86 % of control and the T/C [6] was 96 % of control.

`CC(=O)Nc1ccc(/C=N\NC(=O)N/N=C/c2ccc(NC(C)=O)cc2)cc1` was tested, and the T/C [7] was 90 % of control and the T/C [2] was 91 % of control.

For `CN(C)c1ccc(/C=C2/CCCCC2=O)cc1`, the T/C [1] was 98 % of control, the T/C [2] was 93 % of control and the T/C [3] was 109 % of control. The T/C [4] was 103 % of control, the T/C [5] was 96 % of control and the T/C [6] was 103 % of control.

For `CC1(C)c2ccccc2C(C)(C(Cl)(Cl)Cl)c2ccc(Cl)cc21` (stereo unspecified), the T/C [8] was 98 % of control, the T/C [9] was 90 % of control and the T/C (dose: 100.0 mg/kg/injection, schedule: Q01DX009 (ip), vehicle: saline) was 92 % of control. The T/C [10] was 93 % of control, the T/C (dose: 200.0 mg/kg/injection, schedule: Q01DX009 (ip), vehicle: saline) was 95 % of control and the T/C [11] was 95 % of control. For the same compound, the T/C (dose: 400.0 mg/kg/injection, schedule: Q01DX009 (ip), vehicle: saline) was 97 % of control.

For `N#CCCOc1ccccc1`, the T/C [12] was 108 % of control, the T/C [13] was 108 % of control and the T/C [14] was 104 % of control.

For `O=C(O)C1(Br)c2ccccc2-c2ccccc21`, the T/C [8] was 100 % of control, the T/C [7] was 100 % of control and the T/C [9] was 100 % of control. For the same compound, the T/C [2] was 94 % of control, the T/C [10] was 96 % of control and the T/C [4] was 96 % of control. For the same compound, the T/C [11] was 105 % of control.

With `CC(=O)OCC1OC(SSc2ccccc2)C(OC(C)=O)C(OC(C)=O)C1OC(C)=O` (stereo unspecified) the T/C [12] was 98 % of control, the T/C [13] was 89 % of control and the T/C [14] was 89 % of control.

For `COc1cc(N)c(C(F)(F)F)cc1OC`, the T/C (dose: 100.0 mg/kg/injection, schedule: Q01DX009 (ip), vehicle: saline with Tween-80) was 96 % of control, the T/C (dose: 100.0 mg/kg/injection, schedule: Q04DX003 (ip), vehicle: saline with Tween-80) was 103 % of control and the T/C (dose: 200.0 mg/kg/injection, schedule: Q01DX009 (ip), vehicle: saline with Tween-80) was 94 % of control. The T/C (dose: 200.0 mg/kg/injection, schedule: Q04DX003 (ip), vehicle: saline with Tween-80) was 105 % of control, the T/C (dose: 400.0 mg/kg/injection, schedule: Q01DX009 (ip), vehicle: saline with Tween-80) was 104 % of control and the T/C (dose: 400.0 mg/kg/injection, schedule: Q04DX003 (ip), vehicle: saline with Tween-80) was 104 % of control.
